Measurements taken from the NIST ThermoML archive (doi:10.1016/j.fluid.2007.07.066).
± gives the expanded uncertainty stated by the source.

Experiment: refractive index (Na D-line) (dimensionless); mn = molality of the nth substance listed, in mol/kg
Conditions: 298.15 K, 101 kPa, Liquid, Standard Abbe refractometry

O=P([O-])([O-])O.[Na+].[Na+] [disodium hydrogen phosphate] + O
refractive index (m1 = 0.0049): 1.3328 ± 0.0004 | refractive index (m1 = 0.0104): 1.3329 ± 0.0004 | refractive index (m1 = 0.0154): 1.3331 ± 0.0004 | refractive index (m1 = 0.0211): 1.3333 ± 0.0004 | refractive index (m1 = 0.0413): 1.334 ± 0.0004 | refractive index (m1 = 0.0712): 1.3348 ± 0.0004 | refractive index (m1 = 0.1066): 1.3357 ± 0.0004 | refractive index (m1 = 0.1437): 1.3367 ± 0.0004 | refractive index (m1 = 0.1927): 1.3379 ± 0.0004 | refractive index (m1 = 0.2475): 1.3392 ± 0.0004 | refractive index (m1 = 0.3697): 1.3421 ± 0.0004 | refractive index (m1 = 0.4438): 1.3438 ± 0.0004 | refractive index (m1 = 0.5295): 1.3458 ± 0.0004 | refractive index (m1 = 0.6125): 1.3476 ± 0.0004 | refractive index (m1 = 0.6768): 1.349 ± 0.0004 | refractive index (m1 = 0.7479): 1.3505 ± 0.0004 | refractive index (m1 = 0.8346): 1.3524 ± 0.0004 | refractive index (m1 = 0.9695): 1.3551 ± 0.0004
